This is an account of results in ChEMBL document CHEMBL1136174, “Synthesis and antimycobacterial activity of capuramycin analogues. Part 1: substitution of the azepan-2-one moiety of capuramycin” (Bioorg Med Chem Lett, 2003).

The structures appear in SMILES notation. In brackets after ≈: the same amount, converted by molar mass.

For assay [1], the system named is Mycobacterium intracellulare. The assay is described as follows: Antimycobacterial activity against Mycobacterium intracellular (ATCC 1954 E-3). The assay is classed as functional.
Assay [2] deals with Mycobacterium avium. The assay is described as follows: Antimycobacterial activity against Mycobacterium avium (NIHJ1605). The assay is classed as functional.
The target in assay [3] is T1, Phospho-N-acetylmuramoyl-pentapeptide-transferase (Escherichia coli K-12, UniProt P0A6W3).
T1 sequence (P0A6W3 whole entry): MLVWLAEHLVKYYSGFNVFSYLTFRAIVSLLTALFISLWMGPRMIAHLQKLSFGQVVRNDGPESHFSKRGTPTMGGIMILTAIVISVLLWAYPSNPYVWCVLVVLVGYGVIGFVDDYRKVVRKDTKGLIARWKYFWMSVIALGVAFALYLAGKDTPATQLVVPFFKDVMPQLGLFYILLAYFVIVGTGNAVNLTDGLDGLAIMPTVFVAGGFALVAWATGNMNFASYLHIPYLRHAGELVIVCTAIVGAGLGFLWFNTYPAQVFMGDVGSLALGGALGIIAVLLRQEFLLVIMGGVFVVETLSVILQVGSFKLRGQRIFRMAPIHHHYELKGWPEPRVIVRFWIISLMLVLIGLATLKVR
As to the kind of experiment: Inhibitory activity against translocase I.

Assay [4] relates to Mycobacterium kansasii. The assay is described as follows: Antimycobacterial activity against Mycobacterium kansasii (ATCC12478). The assay is classed as functional.
In assay [5] the test system is Mycolicibacterium smegmatis. The assay is described as follows: Antimycobacterial activity against Mycobacterium smegmatis (SANK 75075). The assay is classed as functional.

What is called MIC is the smallest concentration in the dilution series that meets the test's criterion for growth inhibition. The term IC50 denotes the midpoint of a concentration-inhibition curve.

For the molecule `CO[C@H]1[C@@H](O)[C@H](n2ccc(=O)[nH]c2=O)O[C@@H]1[C@@H](O[C@H]1OC(C(=O)Nc2ccc(Cl)cc2)=C[C@H](O)[C@@H]1O)C(N)=O`, the MIC in assay [1] came out at 2 µg/mL (≈ 3.52 µM); in assay [2] it was 4 µg/mL (≈ 7.03 µM); in assay [4], 16 µg/mL (≈ 28.1 µM); in assay [5], 6.25 µg/mL (≈ 11 µM). This molecule also showed an IC50 in assay [3] of 31.6 nM.
Taken in the same sequence, the figures for `CO[C@H]1[C@@H](O)[C@H](n2ccc(=O)[nH]c2=O)O[C@@H]1[C@@H](O[C@H]1OC(C(=O)Nc2cccc(C)c2)=C[C@H](O)[C@@H]1O)C(N)=O` were 1 µg/mL (≈ 1.82 µM), 4 µg/mL (≈ 7.29 µM), 8 µg/mL (≈ 14.6 µM), 12.5 µg/mL (≈ 22.8 µM) and 13.9 nM.
Taken in the same sequence, the figures for `CO[C@H]1[C@@H](O)[C@H](n2ccc(=O)[nH]c2=O)O[C@@H]1[C@@H](O[C@H]1OC(C(=O)Nc2ccc(Br)cc2)=C[C@H](O)[C@@H]1O)C(N)=O` were 0.5 µg/mL (≈ 0.815 µM), 8 µg/mL (≈ 13 µM), 8 µg/mL (≈ 13 µM), 6.25 µg/mL (≈ 10.2 µM) and 32.6 nM.
As for `CO[C@H]1[C@@H](O)[C@H](n2ccc(=O)[nH]c2=O)O[C@@H]1[C@@H](O[C@H]1OC(C(=O)Nc2ccc(F)cc2)=C[C@H](O)[C@@H]1O)C(N)=O`, the minimum inhibitory concentration (MIC) in assay [1] worked out at 2 µg/mL (≈ 3.62 µM); in assay [2] it was 4 µg/mL (≈ 7.24 µM); in assay [4] it was 2 µg/mL (≈ 3.62 µM); in assay [5], 6.25 µg/mL (≈ 11.3 µM). In assay [3], the IC50 was 67 nM.
Regarding `CO[C@H]1[C@@H](O)[C@H](n2ccc(=O)[nH]c2=O)O[C@@H]1[C@@H](O[C@H]1OC(C(=O)N[C@H]2CCCCNC2=O)=C[C@H](O)[C@@H]1O)C(N)=O` [CAPURAMYCIN], the MIC came out at 8 µg/mL (≈ 14 µM) in assay [1], 8 µg/mL (≈ 14 µM) in assay [2], 8 µg/mL (≈ 14 µM) in assay [4] and 12.5 µg/mL (≈ 21.9 µM) in assay [5]. For the same molecule, in assay [3], half-maximal inhibition (IC50) was put at 18 nM.
Consider `CO[C@H]1[C@@H](O)[C@H](n2ccc(=O)[nH]c2=O)O[C@@H]1[C@@H](O[C@H]1OC(C(=O)Nc2cccc(F)c2)=C[C@H](O)[C@@H]1O)C(N)=O`, for which the MIC in assay [1] is 2 µg/mL (≈ 3.62 µM); in assay [2], 2 µg/mL (≈ 3.62 µM); in assay [4] it was 8 µg/mL (≈ 14.5 µM); in assay [5] it was 6.25 µg/mL (≈ 11.3 µM).
